The target of one data set is GPR40 (Homo sapiens (Human), UniProt O14842). As to the kind of experiment: GPR40 protein activity by intracellular calcium concentration (Fluo-4, Flexstation 3) in transfected HEK-293 cells. Type of data set: cell-based. The following applies: HEK-293 cells transfected with human GPR40, intracellular calcium. How it is done: The GPR40 protein activity according to the novel 3-(4-(benzyloxy)phenyl)hex-4-inoic acid derivative of the present invention was measured by investigating the changes in intracellular calcium concentration affected by the GRP40 activation. First, HEK-293 cells were transfected with human GPR40 DNA (Origene, RC218370) by using Fugene HD (Promega, E2311). […] 24 hours later, the cell culture medium was replaced with Dulbecco's Modified Eagle Medium (DMEM, 50 μl/well) supplemented with 1% fetal bovine serum (FBS). To measure the calcium concentration, 50 μl of Fluo-4 reagent (Invitrogen, F10471) was added to each well, followed by culture in a 37° C. incubator for 2 hours. […] 2 hours after the culture began, those prepared samples were automatically injected to the cells by using Flexstation 3 (Molecular Devices). Then, intracellular calcium concentration was measured for 120 seconds by using SoftMax® Pro software. At this time, dimethylsulfoxide (DMSO) was injected to the cells for the non-treated group, followed by measuring the calcium concentration therein. The GPR40 protein activity was calculated by the below mathematical formula 1 with the results of calcium concentration measurement. GPR40 activity=(intracellular calcium concentration increased by the sample)/(intracellular calcium concentration of the non-treated group)×100 [Mathematical Formula 1]
(Calcium flux is commonly read through the fluorescence of an indicator in the cells.)

The next data set deals with CYP3A4 (Homo sapiens (Human), UniProt P08684). As to the kind of experiment: CYP inhibition (BD GENTEST kit). It counts as in vitro ADME. The settings on record: pH 7.4, read-out: CYP inhibition (%) 3A4. An excerpt:
(§1) CYP is the enzyme involved in drug metabolism. So, the inhibition of this enzyme can change the prediction of dose of a drug and toxicity caused by the co-treatment with other drugs. Therefore, the inventors measured the inhibitory effect of the compounds of Examples of the invention on endogenous CYP3A4, CYP2C9, CYP1A2, CYP2D6, and CYP2C19. At this time, Invitrogen (P2862) was used as the CYP2D6 inhibition kit, and BD GENTEST (459100, 459300, 459400, 459500) was used as the CYP1A2, CYP2C9, CYP2C19, and CYP3A4 inhibition kit. To prepare the Invitrogen kit, the test sample was diluted in distilled water at 2.5× of the final experimental concentration.
(§2) The test sample for BD GENTEST kit was diluted in acetonitrile at 50× of the final experimental concentration. NADPH-coenzyme mixture was prepared by diluting the coenzyme, G6PDH, and regulatory protein included in the kit with distilled water at the concentration instructed by the kit. The prepared 50× sample (4 μL) and the NADPH-coenzyme mixture (96 μL) were mixed in each well of U-bottom 96-well plate, followed by pre-culture for 10 minutes in a 37° C. incubator. Enzyme/substrate mixed solution was prepared by diluting the buffer (0.5 M potassium phosphate, pH 7.4), each CYP450 enzyme/substrate mixed solution included in the kit with distilled water at the instructed concentration. Upon completion of the pre-culture, 100 μL of the enzyme/substrate mixed solution was added in each well of the plate, followed by culture in a 37° C. incubator for 15 minutes (CYP 1A2), 30 minutes (CYP 3A4 and CYP 2C19) or 1 and half hours (CYP 2C9). Upon completion of the reaction, the reactant was transferred onto the white plate, and then fluorescence was measured with a microplate reader (CYP 1A2 and CYP 2C19 excitation wavelength: 410 nm, absorption wavelength: 460 nm; CYP 2C9 and CYP 3A4 excitation wavelength: 409 nm, absorption wavelength: 530 nm). The values obtained above were converted into % as the inhibition rate of the sample by the value of the non-treated group.

A further data set addresses CYP2D6 (Homo sapiens (Human), UniProt P10635). As to the kind of experiment: CYP inhibition (Invitrogen Vivid kit). Type of data set: in vitro ADME. The following applies: probe Vivid CYP450 substrate, read-out: CYP inhibition (%) 2D6.
Excerpt: as §1
P450 BACULOSOMES® reagent and reproducer (100×) included in Invitrogen kit were diluted in Vivid® CYP450 reaction buffer (2×) at the concentration that matched the target CYP450. The prepared 2.5× sample (80 μL) and the diluted P450 BACULOSOMES® reagent mixture (100 μL) were mixed in each well of U-bottom 96-well plate, followed by pre-culture for 20 minutes. Vivid® CYP450 substrate and NADP+ (100×) were diluted in Vivid® CYP450 reaction buffer (2×) at the concentration that matched the target CYP450 and the substrate. Upon completion of the pre-culture, substrate-NADP (nicotinamide adenine dinucleotide phosphate) mixed solution (20 μL) was added thereto, followed by reaction for 1 hour. Upon completion of the reaction, the reactant was transferred onto the white plate, and then fluorescence was measured with a microplate reader (CYP 2D6 excitation wavelength: 400 nm, absorption wavelength: 502 nm). […]

The target in a further data set is CYP1A2 (Homo sapiens (Human), UniProt P05177). As to the kind of experiment: CYP inhibition (BD GENTEST kit). The settings on record: pH 7.4. It counts as in vitro ADME. How it is done:
(§3) CYP is the enzyme involved in drug metabolism. So, the inhibition of this enzyme can change the prediction of dose of a drug and toxicity caused by the co-treatment with other drugs. Therefore, the inventors measured the inhibitory effect of the compounds of Examples of the invention on endogenous CYP3A4, CYP2C9, CYP1A2, CYP2D6, and CYP2C19. […] To prepare the Invitrogen kit, the test sample was diluted in distilled water at 2.5× of the final experimental concentration.
as §2, with “Upon completion of the reaction, the reactant was transferred onto the white plate, and then fluorescence was measured with a microplate reader (CYP 1A2 and CYP 2C19 excitation wavelength: 410 nm, absorption wavelength: 460 nm; CYP 2C9 and CYP 3A4 excitation wavelength: 409 nm, absorption wavelength: 530 nm).” left out

In the next data set the target is CYP2C9 (Homo sapiens (Human), UniProt P11712). As to the kind of experiment: CYP inhibition (BD GENTEST kit). Type of data set: in vitro ADME. The settings on record: pH 7.4, read-out: CYP inhibition (%) 2C9. As for the experimental part: as §3
as §2, with “Upon completion of the reaction, the reactant was transferred onto the white plate, and then fluorescence was measured with a microplate reader (CYP 1A2 and CYP 2C19 excitation wavelength: 410 nm, absorption wavelength: 460 nm; CYP 2C9 and CYP 3A4 excitation wavelength: 409 nm, absorption wavelength: 530 nm).” left out

For another data set, the target named is CYP2C19 (Homo sapiens (Human), UniProt P33261). As to the kind of experiment: CYP inhibition (BD GENTEST kit). It counts as in vitro ADME. The settings on record: pH 7.4, read-out: CYP inhibition (%) 2C19. How it is done:
as §3
as §2, with “Upon completion of the reaction, the reactant was transferred onto the white plate, and then fluorescence was measured with a microplate reader (CYP 1A2 and CYP 2C19 excitation wavelength: 410 nm, absorption wavelength: 460 nm; CYP 2C9 and CYP 3A4 excitation wavelength: 409 nm, absorption wavelength: 530 nm).” left out

Setting [1] is: CYP3A4 enzyme of BD GENTEST inhibition kit.
Where [2] appears, read: P450 BACULOSOMES reagent (Invitrogen Vivid CYP2D6 kit P2862).
The mark [3] stands for this setting: CYP2C9 enzyme of BD GENTEST inhibition kit.
[4] abbreviates: CYP2C19 enzyme of BD GENTEST inhibition kit.

Structures are written as SMILES. Read-outs that look alike come from different tables or passages of the source.

Sequence of CYP3A4 (P08684 whole entry): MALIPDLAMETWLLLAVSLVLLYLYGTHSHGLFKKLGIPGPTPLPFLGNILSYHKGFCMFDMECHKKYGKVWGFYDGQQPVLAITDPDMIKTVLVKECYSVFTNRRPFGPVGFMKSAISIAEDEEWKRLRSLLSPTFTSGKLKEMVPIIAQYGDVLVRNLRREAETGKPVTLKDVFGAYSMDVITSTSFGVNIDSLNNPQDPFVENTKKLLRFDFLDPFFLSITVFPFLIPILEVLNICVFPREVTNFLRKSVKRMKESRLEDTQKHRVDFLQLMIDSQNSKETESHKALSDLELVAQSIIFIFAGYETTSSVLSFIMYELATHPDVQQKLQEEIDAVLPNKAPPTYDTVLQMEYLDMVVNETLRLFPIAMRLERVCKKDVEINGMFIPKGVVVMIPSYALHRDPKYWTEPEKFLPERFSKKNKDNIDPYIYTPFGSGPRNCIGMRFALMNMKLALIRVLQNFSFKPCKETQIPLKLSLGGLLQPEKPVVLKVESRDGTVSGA
Sequence of CYP2C19 (P33261 whole entry): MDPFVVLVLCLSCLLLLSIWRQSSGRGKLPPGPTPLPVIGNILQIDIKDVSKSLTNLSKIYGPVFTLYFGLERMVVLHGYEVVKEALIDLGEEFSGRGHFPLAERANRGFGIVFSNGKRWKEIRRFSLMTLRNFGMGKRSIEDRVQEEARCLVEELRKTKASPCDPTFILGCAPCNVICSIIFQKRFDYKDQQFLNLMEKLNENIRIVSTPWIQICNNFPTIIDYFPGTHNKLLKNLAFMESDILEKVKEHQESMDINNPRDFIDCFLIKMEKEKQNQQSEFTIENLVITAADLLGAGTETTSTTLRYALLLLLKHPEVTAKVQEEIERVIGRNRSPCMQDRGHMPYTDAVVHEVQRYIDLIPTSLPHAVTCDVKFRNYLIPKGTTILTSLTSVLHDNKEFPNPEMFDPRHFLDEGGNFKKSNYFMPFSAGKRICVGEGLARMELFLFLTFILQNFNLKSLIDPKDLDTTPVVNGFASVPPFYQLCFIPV
Sequence of CYP2D6 (P10635 whole entry): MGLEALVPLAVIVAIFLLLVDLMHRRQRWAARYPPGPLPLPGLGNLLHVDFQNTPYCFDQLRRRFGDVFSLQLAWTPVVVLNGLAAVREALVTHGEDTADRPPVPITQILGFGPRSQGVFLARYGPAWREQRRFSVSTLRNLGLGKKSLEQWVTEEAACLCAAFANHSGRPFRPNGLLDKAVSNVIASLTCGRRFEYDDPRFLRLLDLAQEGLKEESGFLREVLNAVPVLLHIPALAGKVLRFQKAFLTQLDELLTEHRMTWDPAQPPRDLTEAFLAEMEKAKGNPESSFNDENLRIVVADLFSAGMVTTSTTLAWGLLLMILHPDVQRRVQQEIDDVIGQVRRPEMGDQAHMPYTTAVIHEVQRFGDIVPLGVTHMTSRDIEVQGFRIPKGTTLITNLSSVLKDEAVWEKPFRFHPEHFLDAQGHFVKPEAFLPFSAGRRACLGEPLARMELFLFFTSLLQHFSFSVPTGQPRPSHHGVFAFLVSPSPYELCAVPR
Sequence of CYP1A2 (P05177 whole entry): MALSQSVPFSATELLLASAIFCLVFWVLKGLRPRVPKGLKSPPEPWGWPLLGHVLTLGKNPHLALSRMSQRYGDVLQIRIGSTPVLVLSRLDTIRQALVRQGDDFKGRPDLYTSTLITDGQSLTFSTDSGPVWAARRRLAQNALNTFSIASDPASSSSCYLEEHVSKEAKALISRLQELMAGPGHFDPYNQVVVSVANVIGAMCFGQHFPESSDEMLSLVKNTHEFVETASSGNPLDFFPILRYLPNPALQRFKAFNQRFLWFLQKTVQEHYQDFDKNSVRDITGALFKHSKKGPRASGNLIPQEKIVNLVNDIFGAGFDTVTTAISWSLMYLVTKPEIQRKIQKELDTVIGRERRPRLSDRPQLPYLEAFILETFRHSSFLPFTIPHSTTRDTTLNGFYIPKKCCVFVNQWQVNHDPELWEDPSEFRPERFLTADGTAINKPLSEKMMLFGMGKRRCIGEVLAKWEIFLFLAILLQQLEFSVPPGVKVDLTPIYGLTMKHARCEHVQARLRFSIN
Sequence of CYP2C9 (P11712 whole entry): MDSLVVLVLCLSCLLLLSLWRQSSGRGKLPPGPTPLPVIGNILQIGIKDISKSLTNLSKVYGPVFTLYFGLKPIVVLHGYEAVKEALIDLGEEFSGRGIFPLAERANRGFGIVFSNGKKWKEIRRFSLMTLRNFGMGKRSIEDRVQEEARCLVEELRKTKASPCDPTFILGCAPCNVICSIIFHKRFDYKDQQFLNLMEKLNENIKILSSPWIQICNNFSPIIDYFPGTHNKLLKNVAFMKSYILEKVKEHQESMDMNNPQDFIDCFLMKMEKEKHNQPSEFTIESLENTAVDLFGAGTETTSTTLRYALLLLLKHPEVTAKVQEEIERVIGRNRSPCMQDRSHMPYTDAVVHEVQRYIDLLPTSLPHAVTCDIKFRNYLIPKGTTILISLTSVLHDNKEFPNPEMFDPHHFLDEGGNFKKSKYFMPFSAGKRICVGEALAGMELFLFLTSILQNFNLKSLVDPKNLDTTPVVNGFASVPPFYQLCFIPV
Sequence of GPR40 (O14842 whole entry): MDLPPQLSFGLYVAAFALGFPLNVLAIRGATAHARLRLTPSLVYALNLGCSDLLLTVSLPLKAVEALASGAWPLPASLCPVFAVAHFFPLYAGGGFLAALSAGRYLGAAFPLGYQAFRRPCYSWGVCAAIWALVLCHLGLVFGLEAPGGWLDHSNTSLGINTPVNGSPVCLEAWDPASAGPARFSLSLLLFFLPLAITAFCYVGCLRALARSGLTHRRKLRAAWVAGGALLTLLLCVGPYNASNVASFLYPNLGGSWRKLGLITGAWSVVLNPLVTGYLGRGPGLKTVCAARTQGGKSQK

For the molecule `CC#C[C@@H](CC(=O)O)c1ccc(OCc2ccc(CN3CCC(c4ccccc4)CC3)cc2)cc1` [Example 26, (S)-3-(4-(4-((4-phenylpiperidine-1-yl)methyl)benzyloxy)phenyl)hex-4-ynoic acid], on GPR40 (read-out: EC50), the EC50 was greater than 300 nM. Also, the results for the inhibition at 30 min, 10 µM on CYP3A4 (setting [1]) and on CYP2C19 (setting [4]) were 14.1% and 13.2%, respectively. In addition, at CYP2D6 (setting [2]), the inhibition (in general, the share of the control response that was lost under treatment) at 1 h, 10 µM turned out to be 2.3%. For the same molecule, the inhibition at 15 min, 10 µM on CYP1A2 amounted to 0.7%. Also, on CYP2C9 (setting [3]), the inhibition at 1.5 h, 10 µM stood at 31.5%.

Take `CC#CC(CC(=O)O)c1ccc(OCc2cccc(C3=CCC(=O)CC3)c2)cc1` (centres unmarked) [Example 4, 3-(4-(3-(4-oxocyclohex-1-enyl)benzyloxy)phenyl)hex-4-ynoic acid]: the EC50 at GPR40 (read-out: EC50) was greater than 300 nM. Further, the inhibition at 30 min, 10 µM on CYP3A4 (setting [1]) worked out at 35%; on CYP2C19 (setting [4]) it was 45.4%. In addition, on CYP2D6 (setting [2]), the inhibition at 1 h, 10 µM came out at 19.3%. The molecule further came in with an inhibition at 15 min, 10 µM at CYP1A2 of 0%. For the same molecule, on CYP2C9 (setting [3]), the inhibition at 1.5 h, 10 µM amounted to 41.5%.

As for `CC#CC(CC(=O)O)c1ccc(OCc2cccc(C3=CCC4(CC3)OCCO4)c2)cc1` (centres unmarked) [Example 1, 3-(4-(3-(1,4-dioxaspiro[4,5]dec-7-en-8-yl)benzyloxy)phenyl)hex-4-ynoic acid], the figures for the inhibition at 30 min, 10 µM at CYP3A4 (setting [1]) and on CYP2C19 (setting [4]) were 12.7% and 18.3%, respectively. Besides, the inhibition at 1 h, 10 µM at CYP2D6 (setting [2]) came out at 1.9%. For the same molecule, the inhibition at 15 min, 10 µM against CYP1A2 came out at 0%. Further, the inhibition at 1.5 h, 10 µM on CYP2C9 (setting [3]) is 42.8%.

Turning to `CC#C[C@@H](CC(=O)O)c1ccc(OCc2ccc(CN3CCC4(C=Cc5ccccc54)CC3)cc2)cc1` [Comparative Example 2, (3S)-3-(4-{[4-(1′H-spiro[indene-1,4′-piperidine]-1′-ylmethyl)benzyl]oxy}phenyl)hex-4-inoic acid, reference compound], on GPR40 (read-out: EC50), the EC50 was greater than 300 nM. In addition, the inhibition at 30 min, 10 µM on CYP3A4 (setting [1]) amounted to 42%; on CYP2C19 (setting [4]), 34.5%. The inhibition at 1 h, 10 µM on CYP2D6 (setting [2]) came out at 63.2%. This molecule displayed an inhibition at 15 min, 10 µM on CYP1A2 of 0%. Besides, the inhibition at 1.5 h, 10 µM on CYP2C9 (setting [3]) was 43.9%.

Take `CC#C[C@@H](CC(=O)O)c1ccc(OCc2ccc(CN3CCc4ccccc4C3)cc2)cc1` [Example 21, (S)-3-(4-(4-((3,4-dihydroisoquinoline-2(1H)-yl)methyl)benzyloxy)phenyl)hex-4-ynoic acid]: the EC50 on GPR40 (read-out: EC50) is 200 to 300 nM. Besides, the inhibition at 30 min, 10 µM on CYP3A4 (setting [1]) worked out at 27.3%; at CYP2C19 (setting [4]) it was 46.5%. In addition, at CYP2D6 (setting [2]), the inhibition at 1 h, 10 µM was determined as 16.1%. Moreover, the inhibition at 15 min, 10 µM on CYP1A2 was 4%. Besides, on CYP2C9 (setting [3]), the inhibition at 1.5 h, 10 µM worked out at 75.9%.

In the case of `CC#C[C@@H](CC(=O)O)c1ccc(OCc2ccc(CN3Cc4ccccc4C3)cc2)cc1` [Example 38, L-lysine (S)-3-(4-(4-(isoindoline-2-ylmethyl)benzyloxy)phenyl)hex-4-ynoate], the inhibition at 30 min, 10 µM on CYP3A4 (CYP3A4 enzyme of the BD GENTEST CYP3A4 inhibition kit) was found to be 18.1%; at CYP2C19 (CYP2C19 enzyme of the BD GENTEST CYP2C19 inhibition kit), 13.2%. For the same molecule, the inhibition at 1 h, 10 µM at CYP2D6 (CYP2D6 P450 BACULOSOMES reagent (Invitrogen kit P2862)) was 15.6%. The same molecule had an inhibition at 15 min, 10 µM against CYP1A2 of 2.2%. Moreover, the inhibition at 1.5 h, 10 µM at CYP2C9 (CYP2C9 enzyme of the BD GENTEST CYP2C9 inhibition kit) was 34.4%.

Consider `CC#C[C@@H](CC(=O)O)c1ccc(OCc2ccc(CN3CCN(c4ccc(OCOC)cc4)CC3)cc2)cc1` [Example 29, (S)-3-(4-(4-((4-(4-(methoxymethoxy)phenyl)piperazine-1-yl)methyl)benzyloxy)phenyl)hex-4-ynoic acid], for which the EC50 on GPR40 (read-out: EC50) lay in the range of 200 to 300 nM. Besides, the values for the inhibition at 30 min, 10 µM on CYP3A4 (setting [1]) and on CYP2C19 (setting [4]) were 0% and 9.7%, respectively. Further, the inhibition at 1 h, 10 µM at CYP2D6 (setting [2]) is 18.2%. At CYP1A2, the inhibition at 15 min, 10 µM amounted to 0.7%. Besides, the inhibition at 1.5 h, 10 µM at CYP2C9 (setting [3]) is 26.7%.

Consider `CC#C[C@@H](CC(=O)O)c1ccc(OCc2cccc(C3=CCC4(CC3)OCCO4)c2)cc1` [Example 7, (3S)-3-(4-(3-(1,4-dioxaspiro[4,5]dec-7-en-8-yl)benzyloxy)phenyl)hex-4-ynoic acid], for which the EC50 was less than 200 nM on GPR40 (read-out: EC50) and less than 200 nM at GPR40 (values in text, read-out: EC50, concentration promoting activation of GPR40 protein by 50%). The inhibition at 30 min, 10 µM was determined as 15.5% at CYP3A4 (setting [1]) and 3.7% at CYP2C19 (setting [4]). Further, the inhibition at 1 h, 10 µM at CYP2D6 (setting [2]) came out at 13.9%. Moreover, the inhibition at 15 min, 10 µM against CYP1A2 was found to be 4.3%. Besides, the inhibition at 1.5 h, 10 µM at CYP2C9 (setting [3]) worked out at 47.1%.

As to `CC#C[C@@H](CC(=O)O)c1ccc(OCc2ccc(CN3CCN(c4ccc(OC)cc4)CC3)cc2)cc1` [Example 40, (S)-3-(4-(4-((4-(4-methoxyphenyl)piperazine-1-yl)methyl)benzyloxy)phenyl)hex-4-ynoic acid], on GPR40 (read-out: EC50), the EC50 is 200 to 300 nM. Further, the figures for the inhibition at 30 min, 10 µM at CYP3A4 (setting [1]) and on CYP2C19 (setting [4]) were 0% and 19.5%, respectively. On CYP2D6 (setting [2]), the inhibition at 1 h, 10 µM came to 17.9%. Besides, the inhibition at 15 min, 10 µM against CYP1A2 was 9.7%. In addition, the inhibition at 1.5 h, 10 µM at CYP2C9 (setting [3]) was 18.4%.
